Measured values from ChEMBL document CHEMBL1201862, “PubChem BioAssay data set” (2004).
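Values below derive from 48-hour exposures of cells grown in 96-well plates, with endpoints linearly interpolated between the two concentrations bracketing the appropriate inhibition level. GI50 = concentration required for 50% inhibition of growth.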 Activity calls are given as the source filed them. No stated cut-off is given here; in the data, active = GI50 up to about 1.1 µM and inactive = higher.

Experiments:
Assay in all cases: inhibition of tumour cell growth, NCI panel, 48 h
A498 = test system: A498
MCF7 = test system: MCF7
OVCAR-8 = test system: OVCAR-8
Malme-3M = test system: Malme-3M
786-0 = test system: 786-0
T47D = test system: T47D
MDA-MB-435 = test system: MDA-MB-435
UO-31 = test system: UO-31
HOP-62 = test system: HOP-62
HCC 2998 = test system: HCC 2998
K562 = test system: K562
SF-539 = test system: SF-539
NCI/ADR-RES = test system: NCI/ADR-RES
HL-60 = test system: HL-60
CCRF-CEM = test system: CCRF-CEM
RPMI-8226 = test system: RPMI-8226
SK-MEL-5 = test system: SK-MEL-5
SK-MEL-28 = test system: SK-MEL-28
SN12C = test system: SN12C
NCI-H226 = test system: NCI-H226

Compound | GI50 (A498) | GI50 (MCF7) | GI50 (OVCAR-8) | GI50 (Malme-3M) | GI50 (786-0) | GI50 (T47D) | GI50 (MDA-MB-435) | GI50 (UO-31) | GI50 (HOP-62) | GI50 (HCC 2998) | GI50 (K562) | GI50 (SF-539) | GI50 (NCI/ADR-RES) | GI50 (HL-60) | GI50 (CCRF-CEM) | GI50 (RPMI-8226) | GI50 (SK-MEL-5) | GI50 (SK-MEL-28) | GI50 (SN12C) | GI50 (NCI-H226)
COc1ccc(Nc2nc3ccccc3n3cccc23)cc1OC | 17.9 µM (inactive) | 16.1 µM (inactive) | 15.9 µM (inactive) | 18.9 µM (inactive) | 15.4 µM (inactive) | 4.06 µM (inactive) | 13.8 µM (inactive) | 19.5 µM (inactive) | 16.3 µM (inactive) | 14.4 µM (inactive) | 21 µM (inactive) | 16.6 µM (inactive) | 17.4 µM (inactive) | 0.0528 µM (active) | 1.05 µM (active) | 11.8 µM (inactive) | 11.9 µM (inactive) | 15.1 µM (inactive) | – | –
Clc1cccc(Cl)c1C1SCC2=Nc3ccccc3CN21 (centres undefined) | 71.8 µM (inactive) | 20.2 µM (inactive) | – | – | 13.2 µM (inactive) | 21.4 µM (inactive) | 27.2 µM (inactive) | 17.3 µM (inactive) | 19.5 µM (inactive) | 29.6 µM (inactive) | 31.3 µM (inactive) | 16.2 µM (inactive) | 19.4 µM (inactive) | 21.7 µM (inactive) | 32.4 µM (inactive) | 17.1 µM (inactive) | 15.8 µM (inactive) | 23.3 µM (inactive) | 46.7 µM (inactive) | –
NCCCCN(CCCN)Cc1ccc2ccccc2c1 | 20.7 µM (inactive) | 54.1 µM (inactive) | 39.4 µM (inactive) | 51.8 µM (inactive) | 34.2 µM (inactive) | > 100 µM (inactive) | > 100 µM (inactive) | 13.7 µM (inactive) | – | 10.6 µM (inactive) | > 100 µM (inactive) | 30.8 µM (inactive) | > 100 µM (inactive) | 67.5 µM (inactive) | 27.1 µM (inactive) | > 100 µM (inactive) | 92.7 µM (inactive) | > 100 µM (inactive) | 12.9 µM (inactive) | 21.5 µM (inactive)
CSc1ccc(/C=C2\N=C(c3ccccc3)N(NC(=O)c3c(Cl)c(Cl)c(Cl)c(Cl)c3-c3nc4ccccc4[nH]3)C2=O)cc1 | 30.8 µM (inactive) | 19.5 µM (inactive) | 37.8 µM (inactive) | 30.1 µM (inactive) | 36 µM (inactive) | 2.03 µM (inactive) | 3.27 µM (inactive) | 27.4 µM (inactive) | 4.11 µM (inactive) | 9.59 µM (inactive) | 5.5 µM (inactive) | 33 µM (inactive) | 25.1 µM (inactive) | 23.7 µM (inactive) | 25.9 µM (inactive) | – | 21.7 µM (inactive) | 30.8 µM (inactive) | 31 µM (inactive) | 14.2 µM (inactive)
CCOC(=O)/C(C(=O)Nc1cccc(Cl)c1)=C(/N)N1CCCC1 | > 100 µM (inactive) | > 100 µM (inactive) | > 100 µM (inactive) | > 100 µM (inactive) | > 100 µM (inactive) | > 100 µM (inactive) | > 100 µM (inactive) | – | > 100 µM (inactive) | > 100 µM (inactive) | > 100 µM (inactive) | > 100 µM (inactive) | > 100 µM (inactive) | > 100 µM (inactive) | > 100 µM (inactive) | > 100 µM (inactive) | – | > 100 µM (inactive) | > 100 µM (inactive) | > 100 µM (inactive)
CC(=O)Nc1c(S(=O)(=O)c2ccccc2)c(C)c(C)n1CCN(C)C | > 100 µM (inactive) | > 100 µM (inactive) | > 100 µM (inactive) | > 100 µM (inactive) | > 100 µM (inactive) | > 100 µM (inactive) | > 100 µM (inactive) | > 100 µM (inactive) | – | > 100 µM (inactive) | > 100 µM (inactive) | > 100 µM (inactive) | > 100 µM (inactive) | > 100 µM (inactive) | > 100 µM (inactive) | > 100 µM (inactive) | > 100 µM (inactive) | > 100 µM (inactive) | > 100 µM (inactive) | > 100 µM (inactive)
Cc1ccc(-n2c(O)c(C#N)c3[nH]nc(N)c3c2=O)cc1 | > 100 µM (inactive) | > 100 µM (inactive) | > 100 µM (inactive) | > 100 µM (inactive) | > 100 µM (inactive) | > 100 µM (inactive) | > 100 µM (inactive) | > 100 µM (inactive) | – | > 100 µM (inactive) | > 100 µM (inactive) | > 100 µM (inactive) | > 100 µM (inactive) | > 100 µM (inactive) | > 100 µM (inactive) | > 100 µM (inactive) | > 100 µM (inactive) | > 100 µM (inactive) | > 100 µM (inactive) | > 100 µM (inactive)
